# Laboratory results as given in US6455589B1, “Primary N-hydroxylamines” (The Regents of the University of California, priority 1999, dated 2002).
# “Also recorded” adds a separate entry of the source. Like-named read-outs stand apart in the source and are kept apart here.
# Columns and labels:
# Aβ(1-40) = target: T1, Aβ(1-40) (Homo sapiens, UniProt P05067); assay: Inhibition of Aβ(1-40) beta-pleated sheet formation (Thioflavin T fluorescence); assay type: biochemical; details: compound 10 μM, 12 hours
# T1 construct: particularly the aggregated fibrils of synthetic Aβ(1-40)
# T1 sequence (P05067 672-711 limits assumed): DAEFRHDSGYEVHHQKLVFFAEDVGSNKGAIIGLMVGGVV
# Text: The deposition of amyloid β-peptide (Aβ) is associated with the development of Alzheimer's disease. See, for example, G. G. Glenner et al. (1984) Biochem. Biophys. Res. Commun., 120:885-890; and R. E. Tanzi (1989) Ann. Med., 21:91-94. Accordingly, compounds which effectively disrupt the formation of Aβ(1-40) or Aβ(1-42) beta-pleated sheets are potentially useful for preventing and/or reversing such amyloid deposits. Thioflavin T (ThT) is known to rapidly associate with beta-pleated sheets, particularly the aggregated fibrils of synthetic Aβ(1-40). This association gives rise to a new excitation maximum at 440 nm and to enhanced emission at 490 nm.
# The experiments are performed using a CytoFluor II fluorescence plate reader having the following parameters: Filters (Excitation and Emission)=440 nm/20 and 490 nm/40; Gain=75; Cycle to Cycle Time=30 min; Run Time=720 min (24 cycles) or dependent on exp. design; Plate=96 well. […] The fluorescence measurement begins when the Aβ(1-40) is added and continues for a total of 12 hours. The percent inhibition of beta-pleated sheet formation is calculated from the relative fluorescence unit difference between aggregation in the presence and in the absence of the test compounds.
# IMR90 cells [1] = assay: Replicative life span of IMR90 cells (gain in PDLs, delay of senescence); assay type: cell-based, human; details: for Toxicity to the cells: high concentrations (100 μM); for Gain in PDLs: continuous cultivation, compared to control untreated cells
# Experimental: Cultivating IMR90 cells in culture—Normal human […] fibroblasts (IMR90) cells were obtained from the Coriell Institute for Medical Research at a population doubling level (PDL) of 10.85. The PDLs were calculated as log2(D/Do), where D and Do are defined as the density of cells at the time of harvesting and seeding, respectively. Stock cultures were grown in 100 mm Corning tissue culture dishes containing 10 ml of Dulbecco's modified Eagle's medium (DMEM) supplemented with 10% (V/V) fetal bovine serum (Hyclone). Stock cultures were split once a week when near confluence. Cells were harvested by trypsinization for 5 min at 37° C., immediately collected in 5 ml complete DMEM, washed once with 5 ml complete DMEM and incubated for 10-15 min at 37° C. to allow the cells to recover.
# To test the effect of hydroxylamines on replicative life span, IMR90 cells were seeded at 0.5×106 per 100 mm dish. N-hydroxylamines (N-t-butyl hydroxylamine, N-benzyl hydroxylamine, N-methyl hydroxyl- amine) were added either individually (final concentration 10 or 100 μM) or in a combination of all three N-hydroxylamines (30 μM each). The cultures were split after 7 days and seeded with fresh medium supplemented with the hydroxylamines described above. In other experiments the medium of the cultures was replaced after 3 days of seeding with fresh medium and with fresh N-hydroxylamines, the split was done as usual after 7 days from seeding. The effect of PBN on life span was tested as in (5).
# IMR90 cells [2] = assay: as above; assay type: cell-based, human; details: 25 μM
# [3] = mice; cited from earlier work
# IMR90 cells [4] = assay: H2O2-induced senescence of IMR90 cells; assay type: cell-based, human; details: 20 μM or 30 μM H2O2 once a week, cells continuously treated
# Experimental: To determine the effect of H2O2 on the replicative life span, cells were first seeded with fresh medium with or without N-hydroxylamines (see above) for a week. Next, cells grown with or without N-hydroxylamines were each split into two additional groups and then either; 1) treated with 20 or 30 μM H2O2 or 2) without treatment with H2O2.
# IMR90 cells [5] = assay: Cellular levels of GSH and GSSG in IMR90 cells (HPLC-EC); assay type: cell-based, human; details: for GSH / GSH/GSSG / GSSG: 100 μM, 26-50 PDLs; for Increase of the GSH/GSSG ratio: vs control
# Experimental: Measurement of cellular levels of GSH and GSSG in IMR90 cells—Cultivated IMR90 cells (≈3×10^6) were washed once in cold PBS and resuspended in 200 μl of ice cold MSA (0.2M MSA/0.5mM diethylenetriamine pentaacetic acid, DTPA) and allowed to stand for 10 min at room temperature. Denatured proteins were removed by centrifugation and the supernatant was filtered with 30,000 D MW cut-off Ultrafree filters (Millipore) before injection. Fifty microliters were injected and separated on an HPLC column (3-μm 0.46×15cm Suplecosil LC18-DB, Supelco, Bellefonte, Pa.) with a flow rate of 1 ml/min using a mobile phase consisting of 25mM NaH2PO4, 5 mM octane sulfonic acid, and 2% acetonitrile, adjusted to pH 2.7 with phosphoric acid (26). An ESA model 5100A Coulochem detector, 5020 guard cell and model 5010 analytical cell combination was used for analysis. Oxidation potentials of 900 mV, 400 mV and 880 mV were used for guard cell, electrode 1 and 2, respectively. Full-scale output was 10 μA and peak areas were compared using commercial GSH and GSSG as standards.
# IMR90 cells [6] = assay: Senescence-dependent change in mitochondria of IMR90 cells, Rho123 accumulation by FACS; assay type: cell-based, human; details: for Rho123, AFU/PDL (rate of Rho123 accumulation per PDL): 100 μM, linear regression 26-50 PDLs; for Decrease of the rate of Rho123 accumulation as a function of senescence: vs control
# Experimental: (§1) Analysis of the age-dependent changes in the steady state level of oxidants and mitochondrial membrane potential in IMR90 cells by FACS—[…] were trypsinized and resuspended into complete DMEM. For each condition, two tubes were prepared with 1×10^6 cells each. Tubes were then spun at 250 g for 10 min at room temperature and supernatant was replaced with 1 ml of Hanks Balanced Salt Solution (HBSS) without Ca^++ or Mg^++. Rho123 (20 μl of 525 μM stock; 10.5 μM final concentration) was added to one tube and DCFH (20 μl of 1.25 mM stock; 25 μM final concentration) was added to the other tube. The cells were then incubated in the dark in a water bath at 37° C. for 30 min followed by cell resuspension and centrifugation at 250 g for 10 min at room temperature. The supernatant (500 μl) was removed from each tube and the cells were resuspended in the remaining 500 μl before FACS analysis on a FACSort analyzer (Becton Dickinson, San Jose, Calif.). Cell Quest was used for data acquisition and analysis. The data is reported as the mean of the channel of the fluorescence histogram obtained. Fluorescence output was calibrated with LinearFlow Green Flow cytometry Intensity Calibration Particles (Molecular Probes, Eugene, Oreg.).
# IMR90 cells [7] = assay: Steady state level of oxidants in IMR90 cells, DCFH oxidation by FACS; assay type: cell-based, human; details: for DCFH, AFU/PDL (rate of DCFH oxidation per PDL): 100 μM, linear regression 26-50 PDLs; for Percent of decrease in the rate of oxidants formation from control: DCFH oxidation, continuous treatment
# Experimental: as §1
# [8] = Auto-oxidation in a cell free system; assay type: physicochemical
# cytochrome c = assay: Auto-oxidation of cyt c^II and direct reduction of cytochrome c by N-hydroxylamines; assay type: biochemical
# Experimental: In order to test the effect of N-hydroxylamines on the spontaneous oxidation of cytochrome c, a complete reduction of cyt c^III was achieved by incubating the X/XO system for 4-5 min at 25° C. Auto-oxidation of cyt c^II is associated with a decrease in absorbance at 550 nm. Reduced cytochrome c was incubated at 25° C. with or without 2 or 3 mM N-hydroxylamines and the auto-oxidation was followed by spectrophotometer. The rate of reduction of cytochrome c by different concentrations of each N-hydroxylamine was measured by the increase in absorbance at 550 nm.
# IMR90 cells [9] = assay: Entry and concentration of N-t-butyl hydroxylamine in cells; assay type: in vitro ADME, human
# in vivo = details: male, C57BL/6J and DBA/2J, mouse, in vivo
# Experimental: C57BL/6J and DBA/2J male mice (35-40 g) are tested for the acute lethal effects of adriamycin and the prevention of acute lethality by pretreatment doses of subject hydroxylamines. Mice are injected i.p with either saline or subject hydroxylamines 30 minutes prior to administration of adriamycin.
compound,measurement,setting,value
"CC(C)NO [Example 1, N-Isopropylhydroxylamine]",Inhibition of Aβ(1-40) beta-pleated sheet formation,Aβ(1-40),inhibit
"ONC1CCCCC1 [Example 3, N-Cyclohexylhydroxylamine]",Inhibition of Aβ(1-40) beta-pleated sheet formation,Aβ(1-40),inhibit
"CC1(C)CC(O)CC(C)(C)N1[O] [Example 4-OH-TEMPO, 4-hydroxy-2,2,6,6-tetramethylpiperidine-1-oxyl]",Delay of senescence of IMR90 cells (in words),IMR90 cells [1],none
same,Toxicity to the cells,IMR90 cells [1],toxic
same,Delay of replicative senescence,IMR90 cells [2],did not delay the replicative senescence
"NO [HNHOH, hydroxylamine]",Anticancer activity,[3],possesses anticancer activity
same,Senescence,[3],delayed senescence
"ONCc1ccccc1 [NBHA, N-benzyl hydroxylamine]",Delay of senescence of IMR90 cells (in words),IMR90 cells [1],active; also recorded: able to delay the senescence
same,H2O2-induced senescence,IMR90 cells [4],attenuated
same,GSH,IMR90 cells [5],48.4 ± 3.4
same,GSH/GSSG,IMR90 cells [5],134.4
same,GSSG,IMR90 cells [5],0.36 ± 0.015
same,Increase of the GSH/GSSG ratio,IMR90 cells [5],90.4%
same,"Rho123, AFU/PDL (rate of Rho123 accumulation per PDL)",IMR90 cells [6],9.7 (0.86) AFU/PDL
same,Decrease of the rate of Rho123 accumulation as a function of senescence,IMR90 cells [6],69%
same,"DCFH, AFU/PDL (rate of DCFH oxidation per PDL)",IMR90 cells [7],0.11 (0.08) AFU/PDL
same,Percent of decrease in the rate of oxidants formation from control,IMR90 cells [7],95%
"CNO [NMHA, N-methyl hydroxylamine]",Delay of senescence of IMR90 cells (in words),IMR90 cells [1],active; also recorded: able to delay the senescence
same,GSH,IMR90 cells [5],52.15 ± 6.7
same,GSH/GSSG,IMR90 cells [5],137.2
same,GSSG,IMR90 cells [5],0.38 ± 0.08
same,Increase of the GSH/GSSG ratio,IMR90 cells [5],94%
same,"Rho123, AFU/PDL (rate of Rho123 accumulation per PDL)",IMR90 cells [6],15.3 (0.86) AFU/PDL
same,Decrease of the rate of Rho123 accumulation as a function of senescence,IMR90 cells [6],52%
same,"DCFH, AFU/PDL (rate of DCFH oxidation per PDL)",IMR90 cells [7],0.45 (0.3) AFU/PDL
same,Percent of decrease in the rate of oxidants formation from control,IMR90 cells [7],79%
"CC(C)(C)NO [NtBHA, N-t-butyl hydroxylamine]",Delay of senescence of IMR90 cells (in words),IMR90 cells [1],delays senescence
same,Gain in PDLs,IMR90 cells [1]; 10 μM,5.8 PDLs
same,Gain in PDLs,IMR90 cells [1]; 100 μM (added once per 7 days),19.7 PDLs
same,"Concentration required to delay senescence (gain in PDLs), relative to PBN",IMR90 cells [1]; vs PBN 200 μM,20 times lower
same,H2O2-induced senescence,IMR90 cells [4],attenuated
same,Stability to auto-oxidation,[8],stable to auto-oxidation
same,Direct reduction of cyt c^III to cyt c^II,cytochrome c,somewhat less efficient
same,GSH,IMR90 cells [5],49.5 ± 5.6
same,GSH/GSSG,IMR90 cells [5],123.8
same,GSSG,IMR90 cells [5],0.4 ± 0.045
same,Increase of the GSH/GSSG ratio,IMR90 cells [5],75%
same,"Rho123, AFU/PDL (rate of Rho123 accumulation per PDL)",IMR90 cells [6],9.3 (0.85) AFU/PDL
same,Decrease of the rate of Rho123 accumulation as a function of senescence,IMR90 cells [6],70%
same,"DCFH, AFU/PDL (rate of DCFH oxidation per PDL)",IMR90 cells [7],0.27 (0.32) AFU/PDL
same,Percent of decrease in the rate of oxidants formation from control,IMR90 cells [7],88%
same,Concentration in the cells,IMR90 cells [9],approximately 5 fold
same,Entry into the cells,IMR90 cells [9],rapidly enters the cells
NOCc1ccccc1 [O-benzyl hydroxylamine],Delay of senescence of IMR90 cells (in words),IMR90 cells [1],accelerate senescence
CON [O-methyl hydroxylamine],Delay of senescence of IMR90 cells (in words),IMR90 cells [1],accelerate senescence
CC(C)(C)ON [O-t-butyl hydroxylamine],Delay of senescence of IMR90 cells (in words),IMR90 cells [1],accelerate senescence
"CC1(C)CCCC(C)(C)N1[O] [TEMPO, 2,2,6,6-tetramethyl-piperidine-1-oxyl]",Delay of senescence of IMR90 cells (in words),IMR90 cells [1],none
same,Toxicity to the cells,IMR90 cells [1],toxic
same,Delay of replicative senescence,IMR90 cells [2],did not delay the replicative senescence
COc1cccc2c1C(=O)c1c(O)c3c(c(O)c1C2=O)C[C@@](O)(C(=O)CO)C[C@@H]3O[C@H]1C[C@H](N)[C@H](O)[C@H](C)O1 [adriamycin],Acute lethality (dose range),in vivo,10 to 30 mg/kg
same,LD50,in vivo,25 mg/kg
O=C1O[C@H]([C@@H](O)CO)C(O)=C1O [ascorbic acid],Delay of senescence of IMR90 cells (in words),IMR90 cells [1],none
O=Cc1ccccc1 [benzaldehyde],Delay of senescence of IMR90 cells (in words),IMR90 cells [1],without effect or toxic at high concentrations
same,Delay of senescence of IMR90 cells (in words),IMR90 cells [1]; listed as Benzaldehyde,without effect and in high concentrations was toxic
"CC(C)(C)N=O [tNB, nitroso-tert-butane]",Effect on IMR90 cells,IMR90 cells [1]; 10 μM in medium,no effect
catalase,Delay of senescence of IMR90 cells (in words),IMR90 cells [1],none
vitamin E,Delay of senescence of IMR90 cells (in words),IMR90 cells [1],none
